Reference: patent US20160199298A1, “FOSFESTROL FOR USE IN CURATIVE OR PALLIATIVE TREATMENT OF CANCER IN FEMALE MAMMALS” (CHAMAELEO PHARMA BVBA, priority 2012, published 2016)

Tests used:
MDA-MB-231 Cells = experiment: in vitro direct cytotoxicity, Cell titer blue viability assay; format: cell-based; details: MDA-MB-231 cells (hormone-insensitive), 72 hrs incubation, 1% FBS assay media
Procedure: (§1) Cells were maintained in vitro in RPMI 1640 containing 10% (v/v) heat inactivated fetal bovine serum (FBS) and 2 mM L-glutamine (growth media) at 37° C. in 5% CO2 and humidified conditions. Cells were harvested, washed, re-suspended into growth medium and counted. The cells were re-suspended into assay media (RPMI 1640+1% (v/v) heat inactivated FBS+ and 2 mM L-glutamine) at 0.5-1×10^5 cells/ml (dependent on cell type), and plated into 96-well assay plates (Corning, black-wall plates) and 50 μl/well aliquots.
(§2) Plates were incubated O/N at 37° C. in 5% humidified CO2 prior to addition of the compounds. […] Fosfestrol was dissolved in sterile water at stock concentration of 60 mM.
(§3) Stocks of all compounds were then serially diluted and final concentration to which cells were exposed were: 300, 150, 75, 37.5, 18.75, 9.4, 4.7, 2.3, 1.2 and 0.6 μM. Positive control was Cisplatin. Cisplatin was diluted in 1% FBS medium to give a stock concentration of 1 mM. Cisplatin stock was serial diluted and final concentration to which cells were exposed was: 100, 50, 25, 12.5, 6.3, […], 1.6, 0.8, 0.4, 0.2 μM.
(§4) Plates were incubated for 72 hrs at 37° C. in 5% humidified CO-2 after addition of the compounds. Viability of the cells was assessed with the Cell titer blue® (Promega) assay. […] Fluorescence was measured with a Flex II station plate reader. […]

MCF7 Cells = experiment: as above; format: cell-based; details: MCF7 cells (hormone-sensitive), 72 hrs incubation, 1% FBS assay media
Procedure: as §1, §2, §3, §4

[1] = test system: postmenopausal women with metastatic breast cancer; details: women initially treated; cited from earlier work
[2] = test system: hormone independent mammary carcinomas; details: very high doses in vivo; cited from earlier work
[3] = test system: postmenopausal breast cancer patients heavily exposed to endocrine therapy; details: 15 mg daily p.o., cited from earlier work
MCF-7 cells = details: 4 days, 5 μM (2 μg/ml); cited from earlier work
[4] = prostate cancer patients, 5 mg p.o. per day; cited from earlier work

Compound | 5-year survival [1] [%] | median survival [1] [years] | reduction in cell growth (MCF-7 cells) | also measured
N.N.[Cl][Pt][Cl] [Cisplatin] | – | – | – | IC50 (MDA-MB-231 Cells): 13 µM; IC50 (MCF7 Cells): 2.8 µM
CC/C(=C(/CC)c1ccc(O)cc1)c1ccc(O)cc1 [DES, diethylstilbestrol] | 35 | 3.0 | no effect at all | effect on hormone independent mammary carcinomas [2]: no effect; efficacy in highly pretreated patients [3]: effective; patients who stopped therapy because of side effects ([3]; six patients): 19%; increase in non-cancer related deaths, mostly cardiovascular [4]: 36%
CC/C(=C(/CC)c1ccc(OP(=O)(O)O)cc1)c1ccc(O)cc1 [DES monophosphate] | – | – | no effect at all | –
CC/C(=C(\c1ccccc1)c1ccc(OCCN(C)C)cc1)c1ccccc1 [tamoxifen] | 16 | 2.4 | – | –
